In experiment [1] the test system is normal human fibroblast cell line WI-38. The experiment in a line: WST-1 cell growth inhibition assay, WI-38. Format: cell-based. The following applies: 120 h, WI-38, WST-1, five days. On the procedure: (§1) FIG. 5 presents inhibition of cell growth by embelin in prostate cancer cells (PC-3 and LnCap) and its selectivity in normal human prostate epithelial cells (PrEC) and normal human fibroblast cell line, WI-38. 5000 cells per well in a 96-well cell culture plate were treated with various concentrations of embelin in triplicate. Five days later, the cell growth was measured by the WST-1 cell growth assay kit […] The cell growth results are expressed as the percent of control and calculated from the percent of absorbance of treated wells versus that of vehicle control.
(§2) Human prostate cancer cell lines (PC-3, LNCap, CL-1, DU-145), and normal human fibroblast cell line WI-38 were obtained from the American Type Culture Collection (ATCC), were grown and maintained in Dulbecco's modified Eagle's medium (DMEM) containing 10% FBS (Invitrogen Corporation). Normal human prostate epithelial cells (PrEC) were obtained from Clonetics (Cambrex Inc., MD) and maintained in the special medium provided by the company. […]
(§3) Cell growth was determined by the MTT-based assay using Cell Proliferation Reagent WST-1 (Roche) according to the manufacturer's instruction. […] Absorbance was measured with a plate reader at […] with correction at […]. The results are expressed as the percent of absorbance of treated wells versus that of vehicle control.
Background: Tetrazolium assays rely on reduction of a dye to a coloured formazan, in cell work by metabolically active cells.

A further experiment concerns Jurkat-Vec cells. Nature of the experiment: Annexin V-FITC apoptosis assay, Jurkat-Vec. Format: cell-based. The note with it: combination with etoposide, 15 hours. On the procedure:
FIGS. 8A and 8B present (A): Dose-dependent induction of apoptosis by etoposide in Jurkat cells transfected with vector control (Jurkat-Vec) and stably transfected with XIAP (Jurkat-XIAP cells); and (B): Induction of apoptosis by etoposide and embelin alone and in combination in Jurkat-Vec and Jurkat-XIAP cells. 1×10^6 Jurkat-XIAP or Jurkat-Vec cells per well in 6-well culture plates were treated with etoposide and embelin alone, or in combination for 15 hours, then stained with Annexin V-FITC and propidium iodide for apoptosis by flow cytometry. The results are shown as percent of Annexin V-FITC positive apoptotic cells.
PC-3 cells, 1×10^6 cells per well in 6-well culture plates, were treated in triplicate with various concentrations of embelin for 24 or 48 hours, then trypsinized and washed with PBS. For Jurkat cells, 1×10^6 Jurkat-XIAP or Jurkat-Vec cells per well in 6-well culture plates, were treated with etoposide, embelin, or both for 15 hours. For flow cytometry apoptosis assay, cells were stained with Annexin V-FITC and propidium iodide using the Annexin-V-FLUOS Kit (Roche) according to the manufacturer's instruction. The fluorescence of Annexin V-FITC and propidium iodide of individual cells was analyzed by FACScan. The results are shown as percent of Annexin V-FITC positive apoptotic cells.

For experiment [2], the system named is LNCap prostate cancer cells. The experiment in a line: WST-1 cell growth inhibition assay, LNCaP. The note with it: Homo sapiens, 120 h, WST-1, five days. The format is cell-based. On the procedure: as §1, §2, §3
The target in experiment [3] is T1, human XIAP-BIR3 domain (residues 241-356) (Homo sapiens, UniProt P98170).
T1 construct: The human XIAP-BIR3 domain (residues 241-356) fused to His-tag; His-tag (pET-28b); made in house; host or cells: Escherichia coli BL21(DE3)
Nature of the experiment: 15N-HSQC NMR binding confirmation. The following applies: 100 μM protein, 100 μM embelin, 30° C. On the procedure: To conclusively confirm that embelin binds to the XIAP BIR3 domain where Smac and caspase-9 bind, and to rule out any potential false positive, an analysis using nuclear magnetic resonance (NMR) Heteronuclear Single Quantum Coherence Spectroscopy (HSQC) method was performed. The human XIAP-BIR3 domain (residues 241-356) fused to His-tag was expressed in M9 medium containing ^15N ammonium chloride to uniformly label protein with ^15N and was purified. ^15N HSQC NMR spectra were recorded with embelin and without embelin at 30° C. […]
The NMR experiments were performed on a Varian Inova 500 with pulse field gradient (PFG) HSQC, with the water flip back to maximize the signal intensity and to minimize the destruction from the water signal (see, e.g., Grzesiek, S., et al., J. Am. Chem. Soc. 115, 12593-94 (1993); Sheppard, G. S., et al., Abstr. Pap.-Am. Chem. Soc. 213, 81 (1997)) (300 μM XIAP, 50 mM phosphate buffer pH 7.3, 2 mM DTT at 25° C.). ^15N HSQC NMR spectra were recorded with samples containing 100 μM of the ^15N protein in 50 mM Tris (pH 7.2), 50 μM Zn(Cl)2, 1 mM DTT at 30° C. with 100 μM embelin and without it. […]

Molecules are shown by their SMILES.

T1 sequence (P98170 241-356): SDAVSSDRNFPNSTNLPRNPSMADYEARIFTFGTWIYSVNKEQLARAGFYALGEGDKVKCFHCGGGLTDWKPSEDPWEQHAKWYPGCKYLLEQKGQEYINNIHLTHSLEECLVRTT

By IC50 is commonly meant the concentration at which inhibition is half-maximal. Read a low IC50 as inhibition by little substance. `CCCCCCCCCCCC1=C(O)C(=O)C=C(O)C1=O` [embelin]: the IC50 in experiment [1] was 19.3 µM; in experiment [2] it was 5.7 µM. Moreover, in the experiment with Jurkat-Vec cells, the “effect on etoposide-induced apoptosis in combination, compared to etoposide alone” value was “did not increase”. For the same molecule, in experiment [3], the “binding site on XIAP BIR3 by 15N HSQC NMR” value is “binds to the surface groove in the XIAP BIR3 domain where Smac and caspase-9 bind”.

The values are drawn from patent US7910621B2, “Small molecule antagonists of XIAP family proteins” (The Regents of the University of Michigan, priority 2004, dated 2011).
